Results on five molecules are retold here after patent EP0384421A2, “Use of PAF antagonists in the treatment of pathologic changes of the blood gas” (BOEHRINGER INGELHEIM KG, priority 1989, dated 1990).

SMILES strings stand for the structures. “And” between values parts separate entries of the source, which are not always exact repeats. Equal entries are not always repeated.

Test [1] relates to Methylparathion. Also on record: species or system Ratten. To be noted: in vivo. From the text:
Die Bestimmung der Partialdrucke der nachfolgend aufgeführten Blutgase sowie die Bestimmung des pH-Wertes des Blutes sind ein Indiz dafür, daß eine Behandlungsmethode bei Organophosphorvergiftungen positiv anspricht.
In der Tabelle I sind der pH-Wert und die Partialdrucke von CO₂ und O₂ aufgeführt. Die Ergebnisse sind Mittelwerte die aus Versuchen an 6 bis 15 Ratten je Experiment erhalten wurden. […] Die Konzentration von Atropin und Web 2086 ist in der Tabelle angegeben und bezieht sich auf mg/kg i.v. Die Reihenfolge der Applikation ist in Spalte 1 der Tabelle angegeben. Die Blutentnahme erfolgt 5 Minuten nach der letzten Substanzgabe. Die Blutgas-Messung erfolgte mit einem "Corning-Blood-Gas-Analyser 178".

Test [2] concerns PAF. In words: Acid-base balance and blood gases in arterial blood of rats after PAF and a PAF antagonist. Format: in vivo, Ratten. To be noted: for BE / HCO3 / O2sat / TCO2 / pCO2 / pO2 / ph: PAF 10 µg/kg i.v., rats; for pH-Wert-Erniedrigung: pH decrease caused by PAF 10 µg/kg i.v.
Where [3] appears, read: PAF antagonist 1000 ug/kg i.v., arterial blood.
Where [4] appears, read: PAF antagonist 100 ug/kg i.v., arterial blood.

Take `CN1C2CCC1CC(OC(=O)C(CO)c1ccccc1)C2` (racemic) [Atropin, reference compound]: the pH in test [1] is 7,43 and 7,21 and 6,97.

Turning to `Cc1nnc2n1-c1sc(Br)cc1C(c1ccccc1Cl)=NC2` [Brotizolam, reference compound], in test [2] (10 mg/kg p.o.), the BE is -18,95, the HCO3 was 7,88, the O2sat was 95,48 and the TCO2 is 8,57. Also, in test [2] (10 mg/kg p.o.), the pCO2 is listed as 22,22, the pO2 was 104,47 and the ph is 7,17. Besides, in test [2] (30 mg/kg p.o.), the BE was -3,32, the HCO3 is 20,97, the O2sat is reported as 94,43 and the TCO2 is 22,05. For the same molecule, in test [2] (30 mg/kg p.o.), the pCO2 is 35,53, the pO2 is 87,42 and the ph is reported as 7,37. Besides, in test [2] (100 mg/kg p.o.), the BE is reported as -7,94, the HCO3 is 16,38, the O2sat was 95,18 and the TCO2 was 17,34. Moreover, in test [2] (100 mg/kg p.o.), the pCO2 is 30,60, the pO2 is listed as 87,92 and the ph is listed as 7,33. Moreover, the “Blutgas-stabilisierende Wirkung” value in test [2] (10,30 und 100 mg/kg p.o., same experimental set-up) is “dosisabhängig”. Moreover, the “durch PAF-verursachte pH Wert-Verminderung” value in test [2] (30 und 100 mg/kg) is listed as “verhindert”. Further, in test [2] (30 und 100 mg/kg, PAF-induced), the “Abnahme des CO₂-Partialdruckes und Abnahme des Basenüberschusses” value is recorded as “verhindert”.

In test [2] (setting [3]), `Cc1nnc2n1-c1sc3c(c1C(c1ccccc1Cl)=NC2)CC(CN1CCOCC1)C3` (centres unmarked) [STY 2108] came in with a BE of 0.42, an HCO3 of 24.5, an O2sat of 96.8 and a TCO2 of 25.8. In test [2] (setting [3]), this molecule gave a pCO2 of 39.5, a pO2 of 90.4 and a ph of 7.40. For the same molecule, in test [2], the pH-Wert-Erniedrigung result is “verhindert”.

In test [2] (setting [3]), `Cc1nnc2n1-c1sc(CCC(=O)N3CCOCC3)cc1C(c1ccccc1Cl)=NC2` [WEB 2086, 4-(2-Chlorphenyl)-9-methyl-2-[3-(4-morpholinyl)-3-propanon-1-yl]-6H-thieno[3,2-f][1,2,4]triazolo[4,3-a][1,4]diazepin] registered a BE of -5.40, an HCO3 of 19.8, an O2sat of 91.5 and a TCO2 of 20.9. In addition, in test [2] (setting [3]), the pCO2 is reported as 38.2, the pO2 is 72.8 and the ph was 7.32. Moreover, the pH-Wert-Erniedrigung result in test [2] is on record as “verhindert”. In test [1], the “Blutgaswerte bei Phosphorsäureestervergiftungen” value was “positiv beeinflußt”; the PCO2 is 73,0 and 58,9; the PO2 was 51,7 and 61,9; the pH was 7,25 and 7,07.

For the molecule `Cc1nnc2n1-c1sc3c(c1C(c1ccccc1Cl)=NC2)CC(C(=O)N1CCOCC1)C3` (centres unmarked) [WEB 2170, 6-(2-Chlorphenyl)-8,9-dihydro-1-methyl-8-[(4-morpholinyl)carbonyl]-4H,7H-cyclopenta[4,5]thieno[3,2-f][1,2,4]triazolo[4,3-a][1,4]diazepin], in test [2] (setting [4]), the BE is on record as 0.18, the HCO3 came out at 22.9, the O2sat amounted to 97.1 and the TCO2 worked out at 23.9. Also, in test [2] (setting [4]), the pCO2 turned out to be 33.8, the pO2 turned out to be 89.8 and the ph is 7.44. Further, in test [2], the pH-Wert-Erniedrigung result is “verhindert”.
